According to PubChem BioAssay AID652289 (Broad Institute, 2013):
Where “and” joins values, the source holds several entries; their conditions need not be identical. Equal entries are not always repeated. Calls of active or inactive are those of the source. How the calls were made is not given here.

Tests used:
[1] = quorum luxo light induction, V. cholerae bh1651 luxod47e, confirmatory dose response (AID 652289); details: V. cholerae BH1651 luxOD47E, luciferase light induction, 6 h
[2] = tested on: V. cholerae BH1651 luxOD47E, luciferase light induction, 6 h; assay: as above

| Compound | light induction ([1]; at 100 µM (top of the series)) | AC40 [2] | further results |
| --- | --- | --- | --- |
| O=C(Nc1nnc(-c2ccccc2Cl)o1)C1CCCCC1 | -0.01% (inactive) |  |  |
| Cc1cc2nc3c(cc2cc1F)c(NC(=O)c1ccco1)nn3C |  | 68.7 µM |  |
| Cc1cc(F)cc2nc3c(cc12)c(NC(=O)c1ccco1)nn3C |  | 41.3 µM |  |
| CCCCCCCCCC(=O)C(O)CC (stereo unspecified) |  |  | light induction ([1]; at 50 µM (top of the series)): 0.038% (inactive) |
| O=C(Nc1nnc(-c2ccc3c(c2)OCCO3)o1)C1CCCCC1 |  | 5.31 µM and 2.57 µM |  |
| Cc1ccc2cc3c(NC(=O)c4ccco4)nn(C)c3nc2c1 |  | 5.26 µM and 15.3 µM |  |
| Cc1ccc2cc3c(NC(=O)c4cc5ccccc5o4)nn(C)c3nc2c1 | -0.007% (inactive) |  |  |
| Cc1ccc2cc3c(NC(=O)c4ccoc4)nn(C)c3nc2c1 |  |  | light induction ([1]; at 80 µM (top of the series)): 2.86% (inactive) |
| Cc1cc(F)c2cc3c(NC(=O)c4ccco4)nn(C)c3nc2c1 |  | 33.5 µM |  |
| Cc1ccc2cc3c(NC(=O)Cc4ccco4)nn(C)c3nc2c1 | 1.12% (inactive) |  |  |
| O=C(Nc1nnc(-c2ccc(Cl)cc2)o1)C1CCCCC1 |  |  | light induction ([1]; at 80 µM (top of the series)): -0.026% (inactive) |
| O=C(Nc1nnc(-c2cccc(Cl)c2)o1)C1CCCCC1 |  |  | light induction ([1]; at 80 µM (top of the series)): 0.065% (inactive) |
| CCn1nnnc1NCc1ccc(C(C)C)cc1 | -0.004% (inactive) |  |  |
| CCCCCCCCCC(=O)[C@H](O)CC (racemic) | 0.014% (inactive) |  |  |
| O=C(Nc1nnc(-c2ccc3c(c2)CCCC3)o1)C1CCC1 |  |  | light induction ([1]; at 80 µM (top of the series)): -0.005% (inactive) |
| Cn1nc(NC(=O)c2ccco2)c2cccnc21 |  | 58.4 µM |  |
| Cn1nc(NC(=O)c2ccco2)c2cc3ccc(C(C)(C)C)cc3nc21 | 0% (inactive) |  |  |
| CN(C)/C=N/c1nnc(-c2ccc3c(c2)OCCO3)o1 | 0.039% (inactive) |  |  |
| O=C(Nc1nnc(-c2ccc3c(c2)OCCO3)o1)C(F)(F)c1ccccc1 | -0.004% (inactive) |  |  |
| CCC(C)(C)C(=O)Nc1nnc(-c2ccc3c(c2)OCCO3)o1 |  |  | light induction ([1]; at 80 µM (top of the series)): -0.006% (inactive) |
| COc1ccc(S(=O)(=O)Nc2nnc(-c3ccc4c(c3)OCCO4)o2)cc1 | 0.005% (inactive) |  |  |
| O=C(CC1CCCCC1)Nc1nnc(-c2ccc3c(c2)CCCC3)o1 |  |  | light induction ([1]; at 35 µM (top of the series)): 0.061% (inactive) |
| COc1ccc(-c2nnc(NC(=O)C3CCCCC3)o2)cc1 |  | > 100 µM (inactive) |  |
| O=C(Nc1nnc(-c2cccnc2)o1)C1CCCCC1 |  | 61.3 µM |  |
| O=C(Cc1ccc(-c2ccccc2)cc1)NC1CCC1 | -0.023% (inactive) |  |  |
| COc1cccc(-c2nnc(NC(=O)C3CCCCC3)o2)c1 | -0.005% (inactive) |  |  |

| Compound | light induction ([1]; at 100 µM (top of the series)) | AC40 [2] | further results |
| --- | --- | --- | --- |
| Cc1ccc2cc3c(NC(=O)C4CCCC4)nn(C)c3nc2c1 |  | 40.6 µM |  |
| O=C(Nc1nnc(-c2ccc3c(c2)OCCO3)o1)C1CCC1 | 0.013% (inactive) |  |  |
| Cn1ccc(NC(=O)c2ccco2)n1 | 0.053% (inactive) |  |  |
| O=C(Nc1nnc(-c2ccc3c(c2)OCCO3)o1)C1CCCCCC1 |  | 6.99 µM |  |
| Cn1nc(NC(=O)c2ccco2)c2cc3ccccc3nc21 |  | 3.58 µM |  |
| O=C(CC1CCCCC1)Nc1nnc(-c2cccnc2)o1 |  |  | light induction ([1]; at 80 µM (top of the series)): -0.016% (inactive) |
| Cn1nc(NC(=O)c2ccco2)c2ccccc21 |  | 89.4 µM |  |
| CN1CCC(C(=O)Nc2nnc(-c3ccc4c(c3)OCCO4)o2)CC1 | 0.052% (inactive) |  |  |
| O=C(Nc1nnc(-c2ccncc2)o1)C1CCC1 | 0.055% (inactive) |  |  |
| COc1ccc2cc3c(NC(=O)c4ccco4)nn(C)c3nc2c1 |  | 2.73 µM |  |
| c1ccc(CNc2nnc(-c3ccc4c(c3)OCCO4)o2)cc1 | -0.004% (inactive) |  |  |
| Cc1ccc2cc3c(NC(=O)c4ccccn4)nn(C)c3nc2c1 | 0.001% (inactive) |  |  |
| CC(C)(C)OC(=O)N1CCC(C(=O)Nc2nnc(-c3ccc4c(c3)OCCO4)o2)CC1 | 0.028% (inactive) |  |  |
| O=S(=O)(Nc1nnc(-c2ccc3c(c2)OCCO3)o1)c1ccc(Cl)cc1 | -0.005% (inactive) |  |  |
| COc1ccc(-c2nnc(NC(C)=O)o2)cc1 | 0.045% (inactive) |  |  |
| CC(C)c1ccc2cc3c(NC(=O)c4ccco4)nn(C)c3nc2c1 | 0.507% (inactive) |  |  |
| Cc1cc2cc3c(NC(=O)c4ccco4)nn(C)c3nc2cc1C |  | 63.3 µM |  |
| O=C(Nc1nnc(C2CCCC2)o1)C1CCCCC1 | -0.015% (inactive) |  |  |
| O=C(Nc1nnc(-c2ccc3c(c2)OCCO3)o1)C1CC1 | 0.004% (inactive) |  |  |
| Cc1ccc2cc3c(NC(=O)c4ccc(C)o4)nn(C)c3nc2c1 | -0.015% (inactive) |  |  |
| O=C(Nc1nnc(-c2cccnc2)o1)C1CCC1 | 0.001% (inactive) |  |  |
| C(=N\c1nnc(-c2ccc3c(c2)OCCO3)o1)/c1ccccc1 | 0.005% (inactive) |  |  |
| COc1ccccc1-c1nnc(NC(=O)C2CCCCC2)o1 |  | > 100 µM (inactive) |  |
| Cc1ccc2cc3c(NC(=O)c4cccs4)nn(C)c3nc2c1 |  | 70.8 µM |  |
| CCc1ccc2cc3c(NC(=O)c4ccco4)nn(C)c3nc2c1 |  | 32.9 µM |  |
